Measured values: PMC3640414 (Journal of Medicinal Chemistry, 2013)
Read-outs that look alike come from different tables or passages of the source.

Tests used:
[1] = system: U2OS (osteosarcoma) cells; assay: WST-1 viability assay, U2OS cells; type: cell-based; settings: Homo sapiens, read-out: IC50, U2OS (osteosarcoma)
[2] = system: HeLa (cervical adenocarcinoma) cells; assay: WST-1 viability assay, HeLa cells; type: cell-based; settings: Homo sapiens, read-out: IC50, HeLa (cervical adenocarcinoma)
[3] = Stability of 8 in buffer (chiral HPLC); type: physicochemical; settings: 2 h in 50 mM HEPES, 0.01% TWEEN, 0.1% BSA
Description: vacuum manifold with the inert gas passing through a bed of activated 4 Å molecular sieves and self-indicating silica gel. Cs2CO3, K2CO3 and activated MnO2 were dried in an oven prior to use.
PhMgBr (in THF) was titrated against salicaldehyde phenylhydrazone prior to use, according to the procedure of Love and Jones.9
Reactions with microwave irradiation were carried out in a Biotage Initiator microwave […]
In vacuo refers to the use of a rotary evaporator attached to a diaphragm pump. Brine refers to a saturated aqueous solution of sodium chloride. Petroleum ether refers to the fraction boiling between 30–40 °C unless otherwise stated.
Stability of 8 in buffer: 0.5 mg of (+)-8 in 10 μL DMSO was suspended in buffer (50 mM HEPES, 0.01% TWEEN, 0.1% BSA). […]
Cytotoxcity of 8 in HeLa and U2OS cells: HeLa cells were grown and maintained in DMEM supplemented with L-glutamine and 10% fetal calf serum; U2OS cells were grown and maintained in McCoy’s medium supplemented with 10% fetal calf serum. […] After 24 h or 72 h, 10 μL of WST-1 (Roche Diagnostics) was added to the culture medium and cell viability was determined by colorimetric WST-1 conversion assay. Formazan dye formation was measured at 450 nm using a Molecular devices Spectramax Plus384 microplate reader. Relative WST-1 conversion in treated cells compared with untreated control cells was calculated after […]

BRD4(1) = target: T1, BRD4(1) (Homo sapiens, UniProt O60885); assay: AlphaScreen peptide displacement assay (ALPHA), BRD4(1); type: binding
T1 construct: amplify the N-terminal bromodomain region of the protein; made in house

PHIP(1) = target: T2, PHIP(1) (Homo sapiens, UniProt Q8WWQ0); assay: ALPHA selectivity panel, PHIP(1); type: binding; settings: 25 μM compound, ALPHA assay
T2 construct: the bromodomains from ATAD2, BAZ1A, BAZ2A, BAZ2B, BRD9, BRPF3, CECR2, GCN5L2, PHIP(1), PB1(1), and TIF1α; made in house
Description: (§1) The ALPHA assay was also used to determine the selectivity of 8, 9, and 17, 21–23 for BRD4(1) over the bromodomain of CREBBP (Table 2). […] The selectivity of 8 was further evaluated across a phylogenetically diverse range of bromodomains (Figure 5).
(§2) Bromodomain AlphaScreen assays were carried out as previously described.[24],[30] All experiments were carried out in duplicate on the same plate.

GCN5L2 = target: T3, GCN5L2 (Homo sapiens, UniProt Q92830); assay: ALPHA selectivity panel, GCN5L2; type: binding; settings: 25 μM compound, ALPHA assay
T3 construct: the bromodomains from ATAD2, BAZ1A, BAZ2A, BAZ2B, BRD9, BRPF3, CECR2, GCN5L2, PHIP(1), PB1(1), and TIF1α; made in house
T3 sequence (Q92830 728-832 limits assumed): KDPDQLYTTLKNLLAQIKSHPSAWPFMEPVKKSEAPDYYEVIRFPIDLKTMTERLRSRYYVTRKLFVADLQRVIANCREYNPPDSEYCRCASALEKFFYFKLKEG
Description: as §1, §2

BRD9 = target: T4, BRD9 (Homo sapiens, UniProt Q9H8M2); assay: ALPHA selectivity panel, BRD9; type: binding; settings: 25 μM compound, ALPHA assay
T4 construct: the bromodomains from ATAD2, BAZ1A, BAZ2A, BAZ2B, BRD9, BRPF3, CECR2, GCN5L2, PHIP(1), PB1(1), and TIF1α; made in house
T4 sequence (Q9H8M2 136-240 limits assumed): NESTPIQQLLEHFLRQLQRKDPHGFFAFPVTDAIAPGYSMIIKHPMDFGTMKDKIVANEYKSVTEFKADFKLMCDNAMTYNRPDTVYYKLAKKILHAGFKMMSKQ
Description: as §1, §2

CREBBP bromodomain = target: T5, CREBBP bromodomain (Homo sapiens, UniProt Q92793); assay: AlphaScreen peptide displacement assay (ALPHA), CREBBP; type: binding; settings: 25 μM compound
T5 construct: made in house

[4] = system: A549 (lung adenocarcinoma) cells; assay: MTS cytotoxicity assay, A549 cells; type: cell-based; settings: 100 μM, 72 h
From the text: (§3) We also investigated the effects of 8 and 9 in two lung adenocarcinoma cell lines, A549 and H1975. […] H1975 appeared to be somewhat more sensitive to these compounds, a finding confirmed by a clonogenic survival assay (Supporting Information Figure S5).
(§4) Viability of MV4;11, H549, and H1975 cells was monitored by MTS-based CellTiter 96 AQueous nonradioactive cell proliferation assay (Promega, Madison, WI). Viability of U2OS and HeLa cells was monitored by WST-based cell proliferation kit (Roche, Mannheim, Germany). Further details are provided in Supporting Information

BAZ2B = target: T6, BAZ2B (Homo sapiens, UniProt Q9UIF8); assay: ALPHA selectivity panel, BAZ2B; type: binding; settings: 25 μM compound, ALPHA assay
T6 construct: the bromodomains from ATAD2, BAZ1A, BAZ2A, BAZ2B, BRD9, BRPF3, CECR2, GCN5L2, PHIP(1), PB1(1), and TIF1α; made in house
T6 sequence (Q9UIF8 2060-2164 limits assumed): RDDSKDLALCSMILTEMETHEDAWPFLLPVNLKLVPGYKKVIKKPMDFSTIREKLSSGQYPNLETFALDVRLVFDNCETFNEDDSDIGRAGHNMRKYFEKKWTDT
Description: as §1, §2

PB1(1) = target: T7, PB1(1) (Homo sapiens, UniProt Q86U86); assay: ALPHA selectivity panel, PB1(1); type: binding; settings: 25 μM compound, ALPHA assay
T7 construct: the bromodomains from ATAD2, BAZ1A, BAZ2A, BAZ2B, BRD9, BRPF3, CECR2, GCN5L2, PHIP(1), PB1(1), and TIF1α; made in house
Description: as §1, §2

BAZ1A = target: T8, BAZ1A (Homo sapiens, UniProt Q9NRL2); assay: ALPHA selectivity panel, BAZ1A; type: binding; settings: 25 μM compound, ALPHA assay
T8 construct: the bromodomains from ATAD2, BAZ1A, BAZ2A, BAZ2B, BRD9, BRPF3, CECR2, GCN5L2, PHIP(1), PB1(1), and TIF1α; made in house
T8 sequence (Q9NRL2 1430-1533 limits assumed): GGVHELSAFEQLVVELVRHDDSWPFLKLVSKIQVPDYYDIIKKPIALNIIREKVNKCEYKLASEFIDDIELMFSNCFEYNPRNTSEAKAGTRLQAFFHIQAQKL
Description: as §1, §2

ATAD2 = target: T9, ATAD2 (Homo sapiens, UniProt Q6PL18); assay: ALPHA selectivity panel, ATAD2; type: binding; settings: 25 μM compound, ALPHA assay
T9 construct: the bromodomains from ATAD2, BAZ1A, BAZ2A, BAZ2B, BRD9, BRPF3, CECR2, GCN5L2, PHIP(1), PB1(1), and TIF1α; made in house
T9 sequence (Q6PL18 980-1092 limits assumed): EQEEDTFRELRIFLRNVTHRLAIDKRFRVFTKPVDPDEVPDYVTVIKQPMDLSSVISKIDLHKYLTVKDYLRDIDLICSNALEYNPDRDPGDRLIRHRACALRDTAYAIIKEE
Description: as §1, §2

BRPF3 = target: T10, BRPF3 (Homo sapiens, UniProt Q9ULD4); assay: ALPHA selectivity panel, BRPF3; type: binding; settings: 25 μM compound, ALPHA assay
T10 construct: the bromodomains from ATAD2, BAZ1A, BAZ2A, BAZ2B, BRD9, BRPF3, CECR2, GCN5L2, PHIP(1), PB1(1), and TIF1α; made in house
T10 sequence (Q9ULD4 589-693 limits assumed): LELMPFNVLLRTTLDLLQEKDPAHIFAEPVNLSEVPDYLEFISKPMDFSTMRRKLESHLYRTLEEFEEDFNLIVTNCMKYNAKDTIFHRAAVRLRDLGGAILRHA
Description: as §1, §2

BAZ2A = target: T11, BAZ2A (Homo sapiens, UniProt Q9UIF9); assay: ALPHA selectivity panel, BAZ2A; type: binding; settings: 25 μM compound, ALPHA assay
T11 construct: the bromodomains from ATAD2, BAZ1A, BAZ2A, BAZ2B, BRD9, BRPF3, CECR2, GCN5L2, PHIP(1), PB1(1), and TIF1α; made in house
T11 sequence (Q9UIF9 1793-1897 limits assumed): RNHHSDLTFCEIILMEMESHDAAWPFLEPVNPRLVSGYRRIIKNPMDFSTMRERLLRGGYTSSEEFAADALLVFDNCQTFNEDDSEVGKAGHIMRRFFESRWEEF
Description: as §1, §2

[5] = system: H1975 (lung adenocarcinoma) cells; assay: MTS cytotoxicity assay, H1975 cells; type: cell-based; settings: 100 μM, 72 h
From the text: as §3, §4

TIF1α = target: T12, TIF1α (Homo sapiens, UniProt O15164); assay: ALPHA selectivity panel, TIF1α; type: binding; settings: 25 μM compound, ALPHA assay
T12 construct: the bromodomains from ATAD2, BAZ1A, BAZ2A, BAZ2B, BRD9, BRPF3, CECR2, GCN5L2, PHIP(1), PB1(1), and TIF1α; made in house
T12 sequence (O15164 899-1004 limits assumed): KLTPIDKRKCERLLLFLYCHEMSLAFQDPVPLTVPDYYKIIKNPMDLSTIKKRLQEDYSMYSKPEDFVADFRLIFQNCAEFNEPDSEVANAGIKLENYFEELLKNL
Description: as §1, §2

CECR2 = target: T13, CECR2 (Homo sapiens, UniProt Q9BXF3); assay: ALPHA selectivity panel, CECR2; type: binding; settings: 25 μM compound, ALPHA assay
T13 construct: the bromodomains from ATAD2, BAZ1A, BAZ2A, BAZ2B, BRD9, BRPF3, CECR2, GCN5L2, PHIP(1), PB1(1), and TIF1α; made in house
Description: as §1, §2

[6] = viability after 72 h incubation using MTS

T13 sequence (Q9BXF3 434-538 limits assumed): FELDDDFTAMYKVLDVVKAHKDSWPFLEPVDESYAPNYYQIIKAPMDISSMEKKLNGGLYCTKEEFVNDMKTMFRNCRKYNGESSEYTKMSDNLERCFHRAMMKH
T7 sequence (Q86U86 41-151 limits assumed): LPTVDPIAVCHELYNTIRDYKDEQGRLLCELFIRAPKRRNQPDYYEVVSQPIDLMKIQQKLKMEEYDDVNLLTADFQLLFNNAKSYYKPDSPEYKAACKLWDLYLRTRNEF
T5 sequence (Q92793 1085-1192 limits assumed): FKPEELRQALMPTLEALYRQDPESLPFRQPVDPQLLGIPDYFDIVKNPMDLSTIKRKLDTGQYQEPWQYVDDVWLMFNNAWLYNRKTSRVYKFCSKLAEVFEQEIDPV

Cc1sc2c(c1C)C(c1ccc(Cl)cc1)=N[C@@H](CC(=O)OC(C)(C)C)c1nnc(C)n1-2 [(+)-JQ1, reference compound]
IC50 ([1]; 72 h): 2.9 µM | IC50 ([2]; 72 h): 2.1 µM

Cc1noc(C)c1-c1cc(O)cc([C@@H](O)c2ccccc2)c1 [(S)-(+)-8, 3-(3,5-Dimethylisoxazol-4-yl)-5-(hydroxy(phenyl)methyl)phenol]
enantiomeric excess after incubation in buffer [3]: > 98 % ee | purity after incubation in buffer [3]: 95%

CCOc1cc(-c2c(C)noc2C)cc(C(C)O)c1 (centres unmarked) [Compound 3]
selectivity for BRD4(1) over CREBBP bromodomain (BRD4(1); comparison of ALPHA IC50 values): approximately 6 fold | ligand efficiency (BRD4(1); for BRD4(1)): 0.39 | lipophilic ligand efficiency (BRD4(1); for BRD4(1)): 3.12

Cc1noc(C)c1-c1cc(O)cc(C(O)c2ccccc2)c1 (centres unmarked) [Compound 8, 3-(3,5-Dimethylisoxazol-4-yl)-5-(hydroxy(phenyl)methyl)phenol]
percentage inhibition of PHIP(1) bromodomain (PHIP(1)): little affinity | inhibition at 25 µM (PHIP(1); read-out: percentage inhibition of PHIP(1) bromodomain): < 25% | IC50 [1, 6]: 19 µM | percentage inhibition of GCN5L2 bromodomain (GCN5L2): little affinity | inhibition at 25 µM (GCN5L2; read-out: percentage inhibition of GCN5L2 bromodomain): < 25% | percentage inhibition of BRD9 bromodomain (BRD9): little affinity | inhibition at 25 µM (BRD9; read-out: percentage inhibition of BRD9 bromodomain): < 25% | inhibition at 25 µM (BRD4(1); 25 μM compound, ALPHA assay, read-out: inhibition of the BRD4(1) bromodomain): ~100% | inhibition at 25 µM (CREBBP bromodomain): ~100% | effect on viability of A549 cells [4]: markedly reduced the viability | percentage inhibition of BAZ2B bromodomain (BAZ2B): little affinity | inhibition at 25 µM (BAZ2B; read-out: percentage inhibition of BAZ2B bromodomain): < 25% | IC50 [2, 6]: 24 µM | percentage inhibition of PB1(1) bromodomain (PB1(1)): little affinity | inhibition at 25 µM (PB1(1); read-out: percentage inhibition of PB1(1) bromodomain): < 25% | percentage inhibition of BAZ1A bromodomain (BAZ1A): little affinity | inhibition at 25 µM (BAZ1A; read-out: percentage inhibition of BAZ1A bromodomain): < 25% | percentage inhibition of ATAD2 bromodomain (ATAD2): little affinity | inhibition at 25 µM (ATAD2; read-out: percentage inhibition of ATAD2 bromodomain): < 25% | percentage inhibition of BRPF3 bromodomain (BRPF3): little affinity | inhibition at 25 µM (BRPF3; read-out: percentage inhibition of BRPF3 bromodomain): < 25% | percentage inhibition of BAZ2A bromodomain (BAZ2A): little affinity | inhibition at 25 µM (BAZ2A; read-out: percentage inhibition of BAZ2A bromodomain): < 25% | effect on viability of H1975 cells [5]: markedly reduced the viability | percentage inhibition of TIF1α bromodomain (TIF1α): little affinity | inhibition at 25 µM (TIF1α; read-out: percentage inhibition of TIF1α bromodomain): < 25% | percentage inhibition of CECR2 bromodomain (CECR2): little affinity | inhibition at 25 µM (CECR2; read-out: percentage inhibition of CECR2 bromodomain): < 25%
